Source: patent US10670605B2, “Cysteine reactive probes and uses thereof” (The Scripps Research Institute, priority 2015, dated 2020)

Assays:
Assay in all cases: Competitive isoTOP-ABPP, cell lysates;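 on isoTOP-ABPP reactivity profile ratio, P09211 C48: Heavy/light ratio DMSO over fragment-treated so higher means more cysteine engagement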;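 on isoTOP-ABPP reactivity profile ratio, Q15084 C190: Heavy/light ratio DMSO over fragment-treated so higher means more cysteine engagement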
Format in all cases: binding
IDH1 C269 (O75874) = IDH1 C269 (O75874) (Homo sapiens, UniProt O75874)
Chain of IDH1 C269 (O75874) (O75874 whole entry): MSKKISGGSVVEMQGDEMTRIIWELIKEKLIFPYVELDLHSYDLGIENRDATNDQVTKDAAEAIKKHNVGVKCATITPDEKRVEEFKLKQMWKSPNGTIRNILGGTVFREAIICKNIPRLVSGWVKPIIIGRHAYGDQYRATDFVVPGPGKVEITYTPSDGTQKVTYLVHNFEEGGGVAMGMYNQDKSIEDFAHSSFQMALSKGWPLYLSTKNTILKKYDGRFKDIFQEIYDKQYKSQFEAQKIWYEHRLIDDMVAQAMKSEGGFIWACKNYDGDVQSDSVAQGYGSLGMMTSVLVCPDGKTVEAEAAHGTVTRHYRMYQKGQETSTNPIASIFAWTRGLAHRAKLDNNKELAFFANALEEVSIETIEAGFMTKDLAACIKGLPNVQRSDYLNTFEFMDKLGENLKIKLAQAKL

XPO1 C34 (O14980) = XPO1 C34 (O14980) (Homo sapiens, UniProt O14980)
Chain of XPO1 C34 (O14980) (O14980 whole entry): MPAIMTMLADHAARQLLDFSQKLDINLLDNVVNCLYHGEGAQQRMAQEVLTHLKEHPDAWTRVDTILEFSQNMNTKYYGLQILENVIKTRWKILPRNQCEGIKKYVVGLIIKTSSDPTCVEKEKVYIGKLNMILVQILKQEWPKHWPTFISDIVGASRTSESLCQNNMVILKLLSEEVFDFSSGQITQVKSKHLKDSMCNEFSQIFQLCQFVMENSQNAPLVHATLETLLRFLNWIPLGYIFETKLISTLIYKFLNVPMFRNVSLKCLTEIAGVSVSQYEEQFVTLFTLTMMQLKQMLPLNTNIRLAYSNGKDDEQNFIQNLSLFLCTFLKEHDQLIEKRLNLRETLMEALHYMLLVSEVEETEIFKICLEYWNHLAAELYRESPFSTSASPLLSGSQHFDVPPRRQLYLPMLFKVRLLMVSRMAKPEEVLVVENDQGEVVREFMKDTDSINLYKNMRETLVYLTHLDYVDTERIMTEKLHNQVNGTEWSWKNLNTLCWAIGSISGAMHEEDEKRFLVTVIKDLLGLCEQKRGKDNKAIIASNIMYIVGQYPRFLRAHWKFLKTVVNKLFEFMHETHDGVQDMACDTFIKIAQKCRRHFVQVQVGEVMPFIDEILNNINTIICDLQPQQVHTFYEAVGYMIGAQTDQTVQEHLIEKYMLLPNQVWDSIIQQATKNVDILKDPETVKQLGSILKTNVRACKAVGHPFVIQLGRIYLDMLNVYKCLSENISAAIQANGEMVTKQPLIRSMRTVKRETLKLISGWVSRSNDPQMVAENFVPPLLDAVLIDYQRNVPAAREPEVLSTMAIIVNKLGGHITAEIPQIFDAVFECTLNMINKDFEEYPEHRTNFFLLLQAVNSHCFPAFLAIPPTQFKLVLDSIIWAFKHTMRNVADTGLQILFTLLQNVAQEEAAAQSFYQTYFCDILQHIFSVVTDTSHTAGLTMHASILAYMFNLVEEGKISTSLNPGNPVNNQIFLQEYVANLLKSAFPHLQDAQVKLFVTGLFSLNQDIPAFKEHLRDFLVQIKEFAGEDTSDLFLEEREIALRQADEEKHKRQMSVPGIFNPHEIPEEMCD

IRF4 C194 (Q15306) = biological target: T1, IRF4 C194 (Q15306) (Homo sapiens, UniProt Q15306); conditions: for isoTOP-ABPP ratio (reactivity profile), Q15306_C194: 500 μm in-vitro ramos
T1 sequence (Q15306 1-451): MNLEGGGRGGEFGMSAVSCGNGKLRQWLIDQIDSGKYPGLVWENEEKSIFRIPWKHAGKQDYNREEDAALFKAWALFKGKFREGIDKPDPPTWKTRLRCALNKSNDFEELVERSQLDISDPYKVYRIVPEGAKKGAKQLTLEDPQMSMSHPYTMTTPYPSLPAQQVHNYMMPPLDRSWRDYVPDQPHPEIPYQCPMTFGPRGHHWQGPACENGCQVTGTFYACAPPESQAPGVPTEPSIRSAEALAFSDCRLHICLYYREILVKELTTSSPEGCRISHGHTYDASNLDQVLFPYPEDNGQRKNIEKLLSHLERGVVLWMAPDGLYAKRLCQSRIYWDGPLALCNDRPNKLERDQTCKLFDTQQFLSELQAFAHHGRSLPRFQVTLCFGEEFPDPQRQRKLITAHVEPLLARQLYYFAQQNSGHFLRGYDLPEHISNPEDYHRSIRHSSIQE

ZNF217 C286 (O75362) = ZNF217 C286 (O75362) (Homo sapiens, UniProt O75362); conditions: for isoTOP-ABPP reactivity ratio, O75362_C286 / isoTOP-ABPP reactivity profile ratio, O75362_C286: 500 μm
Chain of ZNF217 C286 (O75362) (O75362 whole entry, the tested form may be a part): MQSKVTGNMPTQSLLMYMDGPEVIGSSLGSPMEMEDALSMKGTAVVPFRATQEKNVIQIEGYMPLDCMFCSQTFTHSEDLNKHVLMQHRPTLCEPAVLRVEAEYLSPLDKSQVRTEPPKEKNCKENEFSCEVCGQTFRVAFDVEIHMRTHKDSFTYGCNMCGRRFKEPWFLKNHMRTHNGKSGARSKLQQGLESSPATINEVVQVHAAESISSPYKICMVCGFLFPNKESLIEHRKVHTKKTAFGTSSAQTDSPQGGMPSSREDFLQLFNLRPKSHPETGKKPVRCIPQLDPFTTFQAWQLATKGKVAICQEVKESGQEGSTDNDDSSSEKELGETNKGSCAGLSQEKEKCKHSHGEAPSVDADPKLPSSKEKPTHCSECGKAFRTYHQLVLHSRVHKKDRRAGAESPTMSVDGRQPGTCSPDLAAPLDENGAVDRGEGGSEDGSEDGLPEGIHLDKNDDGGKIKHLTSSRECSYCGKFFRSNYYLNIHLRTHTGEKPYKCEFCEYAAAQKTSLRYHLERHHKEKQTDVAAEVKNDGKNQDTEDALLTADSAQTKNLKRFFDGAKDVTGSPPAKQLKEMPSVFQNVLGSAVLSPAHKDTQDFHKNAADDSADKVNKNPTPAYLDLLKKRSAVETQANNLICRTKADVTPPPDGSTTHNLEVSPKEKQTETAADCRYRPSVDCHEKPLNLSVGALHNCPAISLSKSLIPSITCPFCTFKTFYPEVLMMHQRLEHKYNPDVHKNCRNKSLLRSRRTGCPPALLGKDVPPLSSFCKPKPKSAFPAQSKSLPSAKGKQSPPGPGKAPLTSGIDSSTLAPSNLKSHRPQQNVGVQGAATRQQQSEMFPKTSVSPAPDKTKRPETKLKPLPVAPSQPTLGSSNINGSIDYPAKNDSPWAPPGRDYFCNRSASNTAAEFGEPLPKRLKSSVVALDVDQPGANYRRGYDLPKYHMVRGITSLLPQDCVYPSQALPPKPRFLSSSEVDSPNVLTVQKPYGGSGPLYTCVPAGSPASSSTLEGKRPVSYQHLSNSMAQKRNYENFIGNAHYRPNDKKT

GSTP1 C48 (P09211) = GSTP1 C48 (P09211) (Homo sapiens, UniProt P09211); conditions: for isoTOP-ABPP reactivity ratio, P09211_C48 / isoTOP-ABPP reactivity profile ratio, P09211_C48: 500 μm;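 on isoTOP-ABPP reactivity profile ratio, P09211 C48: Heavy/light ratio DMSO over fragment-treated so higher means more cysteine engagement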
Chain of GSTP1 C48 (P09211) (P09211 whole entry, the tested form may be a part): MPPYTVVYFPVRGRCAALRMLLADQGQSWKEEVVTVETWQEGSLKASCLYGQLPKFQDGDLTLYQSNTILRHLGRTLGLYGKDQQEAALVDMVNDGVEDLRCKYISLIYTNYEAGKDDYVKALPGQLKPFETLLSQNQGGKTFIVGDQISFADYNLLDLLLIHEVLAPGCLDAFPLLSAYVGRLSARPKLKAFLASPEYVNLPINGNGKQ

PDIA6 C190 (Q15084) = biological target: T2, PDIA6 C190 (Q15084) (Homo sapiens, UniProt Q15084);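 on isoTOP-ABPP reactivity profile ratio, Q15084 C190: Heavy/light ratio DMSO over fragment-treated so higher means more cysteine engagement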
T2 sequence (Q15084 20-440): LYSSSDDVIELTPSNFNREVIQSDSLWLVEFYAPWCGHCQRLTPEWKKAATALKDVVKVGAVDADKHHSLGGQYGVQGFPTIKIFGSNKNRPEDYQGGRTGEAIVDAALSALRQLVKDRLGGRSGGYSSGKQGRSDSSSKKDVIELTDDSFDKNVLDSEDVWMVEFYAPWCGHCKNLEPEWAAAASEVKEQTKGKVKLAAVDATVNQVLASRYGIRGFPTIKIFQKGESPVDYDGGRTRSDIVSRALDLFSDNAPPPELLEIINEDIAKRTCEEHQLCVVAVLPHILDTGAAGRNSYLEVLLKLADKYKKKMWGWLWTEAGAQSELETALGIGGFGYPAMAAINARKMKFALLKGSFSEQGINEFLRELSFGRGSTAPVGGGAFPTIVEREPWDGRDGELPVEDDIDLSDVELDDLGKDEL

UBE2S C118 (Q16763) = biological target: T3, UBE2S C118 (Q16763) (Homo sapiens, UniProt Q16763)
T3 sequence (Q16763 1-222): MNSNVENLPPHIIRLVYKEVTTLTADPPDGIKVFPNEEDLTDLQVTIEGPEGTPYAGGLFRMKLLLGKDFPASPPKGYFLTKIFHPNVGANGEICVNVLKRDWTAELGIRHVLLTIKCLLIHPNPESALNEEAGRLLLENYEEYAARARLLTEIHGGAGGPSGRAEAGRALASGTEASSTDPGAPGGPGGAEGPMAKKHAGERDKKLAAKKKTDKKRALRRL

UCHL3 C95 (P15374) = biological target: T4, UCHL3 C95 (P15374) (Homo sapiens, UniProt P15374)
T4 sequence (P15374 1-230): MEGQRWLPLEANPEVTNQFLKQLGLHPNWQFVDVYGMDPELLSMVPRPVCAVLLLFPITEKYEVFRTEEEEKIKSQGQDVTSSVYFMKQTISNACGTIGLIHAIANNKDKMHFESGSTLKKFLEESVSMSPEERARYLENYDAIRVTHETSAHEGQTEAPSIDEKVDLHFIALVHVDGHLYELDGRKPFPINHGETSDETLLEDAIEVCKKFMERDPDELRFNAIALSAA

| isoTOP-ABPP ratio (reactivity profile), O75874_C269 (IDH1 C269 (O75874); 500 μm in-vitro ramos_231) | isoTOP-ABPP ratio (reactivity profile), O14980_C34 (XPO1 C34 (O14980); 500 μm in-vitro ramos) | isoTOP-ABPP ratio (reactivity profile), O14980_C34 (XPO1 C34 (O14980); 500 μm in-vitro ramos_231) | isoTOP-ABPP ratio (reactivity profile), Q15306_C194 (IRF4 C194 (Q15306)) | isoTOP-ABPP ratio (reactivity profile), O75362_C286 (ZNF217 C286 (O75362); 500 μm in-vitro ramos_231) | isoTOP-ABPP ratio (reactivity profile), P09211_C48 (GSTP1 C48 (P09211); 500 μm in-vitro ramos) | isoTOP-ABPP ratio (reactivity profile), P09211_C48 (GSTP1 C48 (P09211); 500 μm in-vitro ramos_231) | isoTOP-ABPP ratio (reactivity profile), Q15084_C190 (PDIA6 C190 (Q15084); 500 μm in-vitro ramos) | isoTOP-ABPP ratio (reactivity profile), Q15084_C190 (PDIA6 C190 (Q15084); 500 μm in-vitro ramos_231) | isoTOP-ABPP ratio (reactivity profile), Q16763_C118 (UBE2S C118 (Q16763); 500 μm in-vitro ramos_231) | isoTOP-ABPP ratio (reactivity profile), P15374_C95 (UCHL3 C95 (P15374); 500 μm in-vitro ramos_231) | isoTOP-ABPP ratio (reactivity profile), Q16763_C118 (UBE2S C118 (Q16763); 500 μm in-vitro ramos) | isoTOP-ABPP ratio (reactivity profile), P15374_C95 (UCHL3 C95 (P15374); 500 μm in-vitro ramos) | isoTOP-ABPP reactivity ratio, O14980_C34 (XPO1 C34 (O14980); 500 μm, in-vitro_ramos) | isoTOP-ABPP reactivity ratio, Q15306_C194 (IRF4 C194 (Q15306); 500 μm, in-vitro_ramos) | isoTOP-ABPP reactivity ratio, O75362_C286 (ZNF217 C286 (O75362); in-vitro_ramos) | isoTOP-ABPP reactivity ratio, Q16763_C118 (UBE2S C118 (Q16763); 500 μm, in-vitro_ramos) | isoTOP-ABPP reactivity ratio, P15374_C95 (UCHL3 C95 (P15374); 500 μm, in-vitro_ramos) | Structure (SMILES) | other results |
| --- | --- | --- | --- | --- | --- | --- | --- | --- | --- | --- | --- | --- | --- | --- | --- | --- | --- | --- | --- |
| 1.5 | 1.2 | 0.9 | 1.7 | 0.9 | 1.3 | 1.1 | 2.3 | 1.1 | 0.9 | 1.1 | – | – | – | – | – | – | – | O=C(CCl)NC12CC3CC(CC(C3)C1)C2 [compound 21] | – |
| 0.7 | 5.3 | 3.4 | 1.9 | 20.0 | 0.9 | 0.8 | 1.1 | 0.8 | 1.6 | 0.8 | 2.4 | 1.1 | – | – | – | – | – | N#C/C(=C\c1cc(C(F)(F)F)cc(C(F)(F)F)c1)C(N)=O [compound 23] | isoTOP-ABPP ratio (reactivity profile), O75874_C269 (IDH1 C269 (O75874); 500 μm in-vitro ramos): 1.1 |
| 1.1 | 0.9 | 0.8 | 1.1 | 1.0 | 1.5 | 1.3 | 1.6 | 1.1 | 1.0 | 1.1 | 0.8 | 0.9 | – | – | – | – | – | COc1ccccc1OCCNC(=O)CCl [compound 28] | isoTOP-ABPP ratio (reactivity profile), O75362_C286 (ZNF217 C286 (O75362); 500 μm in-vitro ramos): 1.0 |
| – | 0.7 | – | – | – | 1.4 | – | 2.3 | – | – | – | 0.7 | 0.7 | 1.1 | 1.7 | 2.1 | 1.1 | 1.0 | CCN(CC)c1ccc(S(N)(=O)=O)cc1NC(=O)CCl [compound 30] | isoTOP-ABPP ratio (reactivity profile), O75874_C269 (IDH1 C269 (O75874); 500 μm in-vitro ramos): 0.7; isoTOP-ABPP reactivity ratio, P09211_C48 (GSTP1 C48 (P09211); in-vitro_ramos): 1.2 |
| – | – | – | – | – | – | – | – | – | – | – | – | – | 1.0 | 2.1 | 1.2 | 1.0 | 12.5 | C=CC(=O)Nc1cc(F)c(N2CCN(C(=O)OC(C)(C)C)CC2)c(F)c1 [compound 38] | isoTOP-ABPP reactivity ratio, O75874_C269 (IDH1 C269 (O75874); 500 μm, in-vitro_ramos_231): 0.7; isoTOP-ABPP reactivity ratio, O14980_C34 (XPO1 C34 (O14980); 500 μm, in-vitro_ramos_231): 1.0; isoTOP-ABPP reactivity ratio, O75362_C286 (ZNF217 C286 (O75362); in-vitro_ramos_231): 0.9; isoTOP-ABPP reactivity ratio, P09211_C48 (GSTP1 C48 (P09211); in-vitro_ramos_231): 1.9; isoTOP-ABPP reactivity ratio, Q15084_C190 (PDIA6 C190 (Q15084); 500 μm, in-vitro_ramos_231): 1.1; isoTOP-ABPP reactivity ratio, Q16763_C118 (UBE2S C118 (Q16763); 500 μm, in-vitro_ramos_231): 1.0; isoTOP-ABPP reactivity ratio, P15374_C95 (UCHL3 C95 (P15374); 500 μm, in-vitro_ramos_231): 2.7 |
| – | – | – | – | – | – | – | – | – | – | – | – | – | 2.0 | 1.2 | 0.6 | 3.4 | 0.8 | Cc1ccc(C=C(C#N)C(=O)NCCN2CCOCC2)cc1 [compound 41] | isoTOP-ABPP reactivity ratio, O75874_C269 (IDH1 C269 (O75874); 500 μm, in-vitro_ramos_231): 0.8; isoTOP-ABPP reactivity ratio, O14980_C34 (XPO1 C34 (O14980); 500 μm, in-vitro_ramos_231): 3.1; isoTOP-ABPP reactivity ratio, P09211_C48 (GSTP1 C48 (P09211); in-vitro_ramos): 0.9; isoTOP-ABPP reactivity ratio, P09211_C48 (GSTP1 C48 (P09211); in-vitro_ramos_231): 1.3; isoTOP-ABPP reactivity ratio, Q15084_C190 (PDIA6 C190 (Q15084); 500 μm, in-vitro_ramos_231): 1.0; isoTOP-ABPP reactivity ratio, P15374_C95 (UCHL3 C95 (P15374); 500 μm, in-vitro_ramos_231): 1.0 |
| – | – | – | – | – | – | – | – | – | – | – | – | – | – | – | – | – | – | COc1cc(NC(=O)CCl)cc(OC)c1 [compound 43] | isoTOP-ABPP reactivity profile ratio, O75874_C269 (IDH1 C269 (O75874); 500 μm, in-vitro_ramos_231): 0.8; isoTOP-ABPP reactivity profile ratio, O14980_C34 (XPO1 C34 (O14980); 500 μm, in-vitro_ramos_231): 1.1; isoTOP-ABPP reactivity profile ratio, Q15306_C194 (IRF4 C194 (Q15306); 500 μm, in-vitro_ramos): 3.0; isoTOP-ABPP reactivity profile ratio, O75362_C286 (ZNF217 C286 (O75362); in-vitro_ramos): 1.2; isoTOP-ABPP reactivity profile ratio, O75362_C286 (ZNF217 C286 (O75362); in-vitro_ramos_231): 1.9; isoTOP-ABPP reactivity profile ratio, P09211_C48 (GSTP1 C48 (P09211); in-vitro_ramos): 2.2; isoTOP-ABPP reactivity profile ratio, P09211_C48 (GSTP1 C48 (P09211); in-vitro_ramos_231): 4.1; isoTOP-ABPP reactivity profile ratio, Q15084_C190 (PDIA6 C190 (Q15084); 500 μm, in-vitro_ramos_231): 20.0; isoTOP-ABPP reactivity profile ratio, Q16763_C118 (UBE2S C118 (Q16763); 500 μm, in-vitro_ramos): 1.0; isoTOP-ABPP reactivity profile ratio, P15374_C95 (UCHL3 C95 (P15374); 500 μm, in-vitro_ramos): 20.0 |
